Measured values taken from US5717110A, “UCH15 compounds” (Kyowa Hakko Kogyo Co., Ltd., priority 1995, dated 1998).
Converted amounts (≈) assume the structure as drawn.

Tests used:
[1] = tested on: Bacillus subtilis No. 10707; assay: Antibacterial activity, agar dilution method (MIC); assay type: cell-based; conditions: medium pH 7, read-out: Minimum Inhibitory Concentration
Protocol: (§1) These antibacterial activities were determined by the agar dilution method with the use of a medium (pH 7) comprising 3 g/liter of bactotryptone (manufactured by Difco), 3 g/liter of meat extract, 1 g/liter of yeast extract, 1 g/liter of glucose and 16 g/liter of agar.

[2] = tested on: Candida albicans ATCC 10231; assay: Antibacterial activity, agar dilution method (MIC); assay type: cell-based; conditions: ATCC10231, medium pH 7, read-out: Minimum Inhibitory Concentration
Protocol: as §1

[3] = tested on: Enterococcus hirae ATCC 10541; assay: Antibacterial activity, agar dilution method (MIC); assay type: cell-based; conditions: ATCC10541, medium pH 7, read-out: Minimum Inhibitory Concentration
Protocol: as §1

[4] = tested on: Escherichia coli ATCC 26; assay: Antibacterial activity, agar dilution method (MIC); assay type: cell-based; conditions: ATCC26, medium pH 7, read-out: Minimum Inhibitory Concentration
Protocol: as §1

[5] = tested on: Klebsiella pneumoniae ATCC 10031; assay: Antibacterial activity, agar dilution method (MIC); assay type: cell-based; conditions: ATCC10031, medium pH 7, read-out: Minimum Inhibitory Concentration
Protocol: as §1

[6] = tested on: Proteus vulgaris ATCC 6897; assay: Antibacterial activity, agar dilution method (MIC); assay type: cell-based; conditions: ATCC6897, medium pH 7, read-out: Minimum Inhibitory Concentration
Protocol: as §1

[7] = tested on: Pseudomonas aeruginosa Bin H No. 1; assay: Antibacterial activity, agar dilution method (MIC); assay type: cell-based; conditions: medium pH 7, read-out: Minimum Inhibitory Concentration
Protocol: as §1

[8] = tested on: Salmonella choleraesuis ATCC 9992; assay: Antibacterial activity, agar dilution method (MIC); assay type: cell-based; conditions: Salmonella enterica, pH 7, read-out: Minimum Inhibitory Concentration
Protocol: as §1

[9] = tested on: Shigella sonnei ATCC 9290; assay: Antibacterial activity, agar dilution method (MIC); assay type: cell-based; conditions: ATCC9290, medium pH 7, read-out: Minimum Inhibitory Concentration
Protocol: as §1

[10] = tested on: Staphylococcus aureus ATCC 6538P; assay: Antibacterial activity, agar dilution method (MIC); assay type: cell-based; conditions: ATCC6538P, medium pH 7, read-out: Minimum Inhibitory Concentration
Protocol: as §1

[11] = tested on: Hela S3 cells (ATCC HTB22); assay: Growth inhibition on Hela S3 cells; assay type: cell-based; conditions: Homo sapiens, 72 hours incubation, Giemsa staining, read-out: IC50 against the cell growth
Protocol: Into each well of a 96-well microtiter plate was pipetted 0.1 ml of a 3.0×10^4 cells/ml suspension of Hela S3 cells (ATCC HTB22) in DEM medium containing 10% of fetal calf serum (manufactured by Nissui, hereinafter referred to as "medium A"). This plate was incubated in a carbon dioxide gas incubator at 37° C. for 20 hours. Then, 0.1 ml of the test compound, which had been appropriately diluted with the medium A, was added to each well followed by incubation in the carbon dioxide gas incubator at 37° C. for additional 72 hours. After having removed the culture supernatant, the residue was washed with physiological saline once and treated with 0.1 ml of methanol for 10 minutes to thereby fix the cells. Next, the cells were stained with 0.1 ml of Giemsa's staining solution [stock solution for Giemsa's staining Merck Art 9204 (manufactured by Merck): physiological saline=1:10] for 5 minutes. After having removed the staining solution, the residue was washed with 0.2 ml of water once. Then, the pigment was extracted with 0.2 ml of 0.1N hydrochloric acid, and the absorbance was measured at 620 nm by the use of a microplate reader. From the result of the measurement, the increased amount of the grown cells was determined. […]

[12] = tested on: sarcoma 180 tumor; assay: Antitumor activity on sarcoma 180 tumor; assay type: in vivo, male ddY mice; conditions: for Mean Tumor Volume: once into tail vein on day 1, measured on 7th day after implantation, ddY mice; for Antitumor Activity (T/C): once into tail vein, day 7, mean tumor volume test/control
Protocol: Male ddY mice were used herein, which were grouped into plural groups, each group being comprised of 5 mice. 5×10^6 sarcoma 180 tumor cells were implanted into the subcutaneous tissue in the axillary region of each mouse. On the 1st day after the implantation, a solution of UCH15B dissolved in physiological saline was injected once into the tail vein of each mouse. On the 7th day after the implantation, the mean tumor volume (mm^3) in each mouse was measured. […] Said antitumor activity was calculated according to the following equation.
=[mean tumor volume (mm^3) in mice in test group]/[mean tumor volume (mm^3) in mice in control group (to which was administered physiological saline only)]

[13] = tested on: human ovarian cancer strain A2780 tumor; assay: Antitumor activity on human ovarian cancer strain A2780; assay type: in vivo; conditions: 0.38 mg/kg, once into tail vein; nude mice (BALB/C-nu/nu); 14 days after injection; [V/V0]/[C/C0]
Protocol: Nude mice (BALB/C-nu/nu) were used herein, which were grouped into plural groups, each group being comprised of 5 mice. A human ovarian cancer strain A2780 tumor (a piece of 8mm^3) was implanted into the subcutaneous tissue in the abdominal region of each mouse. After the implantation, when the tumor volume in each tumor-carrying mouse reached between 50 and 300 mm^3, a solution of UCH15B in physiological saline was injected once into the tail vein of each mouse (in the test group). Just before the injection of said UCH15B solution, the volume of the tumor (V0) in each mouse was measured. 14 days after the injection thereof, the volume of the tumor (V) therein was measured. Into each mouse in the control group, only physiological saline was injected. Just before the injection of physiological saline, the volume of the tumor (C0) in each mouse was measured. 14 days after the injection thereof, the volume of the tumor (C) therein was measured. The antitumor activity of the test compound, UCH15B was obtained according to the following equation.
Antitumor Activity=[V/V0]/[C/C0 ]
V: tumor volume (mm^3) in test group after the test
V0 : tumor volume (mm^3) in test group before the test
C: tumor volume (mm^3) in control group after the test
C0 : tumor volume (mm^3) in control group before the test

Row | Structure (SMILES) | MIC [1] | MIC [2] | MIC [3] | MIC [4] | MIC [5] | MIC [6] | MIC [7] | MIC [8] | MIC [9] | MIC [10] | IC50 [11] | Mean Tumor Volume ([12]; 0.094 mg/kg) | Antitumor Activity (T/C) ([12]; 0.094 mg/kg) | Mean Tumor Volume ([12]; 0.19 mg/kg) | Antitumor Activity (T/C) ([12]; 0.19 mg/kg) | Mean Tumor Volume ([12]; 0.38 mg/kg) | Antitumor Activity (T/C) ([12]; 0.38 mg/kg) | Mean Tumor Volume ([12]; 0.75 mg/kg) | Antitumor Activity (T/C) ([12]; 0.75 mg/kg) | Antitumor Activity (T/C) [13]
1 | N#CC(CC(=O)NC(C=O)C/C=C/CN)NC(=O)c1cc(NC(=O)c2cc(NC(=O)CNC(=N)N)c[nH]2)c[nH]1 (stereo not shown) [UCH15A] | 0.08 µg/mL (≈ 0.148 µM) | 10.4 µg/mL (≈ 19.3 µM) | 2.6 µg/mL (≈ 4.82 µM) | 0.16 µg/mL (≈ 0.297 µM) | 0.02 µg/mL (≈ 0.0371 µM) | 0.16 µg/mL (≈ 0.297 µM) | > 50 µg/mL | 0.16 µg/mL (≈ 0.297 µM) | 0.16 µg/mL (≈ 0.297 µM) | 2.6 µg/mL (≈ 4.82 µM) | 1200 nM |  |  |  |  |  |  |  |  | 
2 | N#CC(CC(=O)NC(C=O)C/C=C/CN)NC(=O)c1cc(NC(=O)c2cc(NC(=O)CNC(N)=NO)c[nH]2)c[nH]1 (stereo not shown) [UCH15B] | 0.33 µg/mL (≈ 0.594 µM) | > 41.7 µg/mL | 10.4 µg/mL (≈ 18.7 µM) | 0.08 µg/mL (≈ 0.144 µM) | 0.04 µg/mL (≈ 0.072 µM) | 0.33 µg/mL (≈ 0.594 µM) | > 50 µg/mL | 0.33 µg/mL (≈ 0.594 µM) | 0.33 µg/mL (≈ 0.594 µM) | 5.2 µg/mL (≈ 9.36 µM) | 1000 nM | 1528 mm^3 | 0.65 | 1405 mm^3 | 0.60 | 1035 mm^3 | 0.44 | 522 mm^3 | 0.22 | 0.27
